# Reference: patent US20260256792A1, “TREATMENT OF CHRONIC SPONTANEOUS URTICARIA BY ADMINISTERING (R)-2-[3-[4-AMINO-3-(2-FLUORO-4-PHENOXY-PHENYL)PYRAZOLO[3,4-D]PYRIMIDIN-1-YL]PIPERIDINE-1-CARBONYL]-4-METHYL-4-[4-(OXETAN-3-YL)PIPERAZIN-1-YL]PENT-2-ENENITRILE” (priority 2023, published 2026)
# System: moderate-to-severe chronic spontaneous urticaria (CSU)
# Assay: Phase 2 CSU study: urticaria activity score over 7 days (UAS7)
# Assay type: in vivo, human
# Design: key to UAS7 Median / UAS7 Change from baseline Median / UAS7 change from baseline, Q1 / UAS7 change from baseline, Q3 / UAS7 change from baseline, Max / UAS7 Change from baseline LS Mean (SE): UAS7 points; daily UAS score ranges 0–6 points/day, over 7 days
# Source text: The study comprises a 12 week, randomized, double-blind, placebo-controlled, multi-center, dose-ranging efficacy and safety phase, followed by a 40 week open label extension (OLE) phase (see FIG. 1). The study consists of three phases and an optional OLE phase. […] Clinically, CSU is characterized by the spontaneous and recurrent appearance of pruritic hives. The proposed primary endpoints were the UAS7 at Week 12 in EU and EU reference countries and the ISS7 in the US. Regardless of where a participant was from, all assessments were the same. The UAS7 score is a composite score containing both the HSS7 and the ISS7. This allowed a global assessment of the two key components of urticaria: hives and itch. […] The UAS is a validated PRO measure. […] The daily UAS scores range from 0 to 6 point/day. […] Patients were to complete the UAS using the e-diary. […] The following secondary endpoints were to be analyzed using the same approach as for the primary endpoint: • Change from baseline in UAS7 at Week 4 • Change from baseline in UAS7 at Week 12 (for US and US reference countries) • Change from baseline in ISS7 at Week 12 (except US and US reference countries) • Change from baseline in HSS7 at Week 12 The following responder secondary endpoints were to be analyzed using the Cochran-Mantel-Haenszel test adjusted by region: • Proportion of participants with UAS7<6 at Week 12 • Proportion of participants with UAS7=0 at Week 12 Participants who received selected prohibited medications and/or rescue medications were to be considered as non-responders for time points after the medication usage. For other participants, all available data including those collected during the off-treatment period were to be used to determine the responder/non-responder status. Missing data were to be considered as non-responders.
# [1] = Week 4, 400 mg TID, omalizumab-naive participants
# [2] = Week 5, 400 mg BID, ITT population
# [3] = Week 5, 400 mg BID, Omalizumab-Naïve
# [4] = Week 5, 400 mg BID, Prior Omalizumab Use
# [5] = Week 5, 400 mg BID, omalizumab-naive participants
# [6] = Week 5, 400 mg QPM, ITT population
# [7] = Week 5, 400 mg QPM, Omalizumab-Naïve
# [8] = Week 5, 400 mg QPM, Prior Omalizumab Use
# [9] = Week 5, 400 mg QPM, omalizumab-naive participants
# [10] = Week 5, 400 mg TID, ITT population
# [11] = Week 5, 400 mg TID, Omalizumab-Naïve
# [12] = Week 5, 400 mg TID, Prior Omalizumab Use
# [13] = Week 5, 400 mg TID, omalizumab-naive participants
smiles,measurement,setting,value
"CC(C)(C=C(C#N)C(=O)N1CCC[C@@H](n2nc(-c3ccc(Oc4ccccc4)cc3F)c3c(N)ncnc32)C1)N1CCN(C2COC2)CC1 [rilzabrutinib, (R)-2-[3-[4-amino-3-(2-fluoro-4-phenoxy-phenyl)pyrazolo[3,4-d]pyrimidin-1-yl]piperidine-1-carbonyl]-4-methyl-4-[4-(oxetan-3-yl)piperazin-1-yl]pent-2-enenitrile]",UAS7 Percent change from baseline Median,"Week 4, 400 mg TID, Prior Omalizumab Use",−68.48%
same,"Non-responder, UAS7 reduction from baseline of 10 points or more",[1],11 (31.4) n (%)
same,"OR for rilzabrutinib vs. placebo, UAS7 reduction of 10 points or more",[1],3.855
same,"RRD (%) for rilzabrutinib vs. placebo, UAS7 reduction of 10 points or more",[1],31.2 %
same,"Responder, UAS7 reduction from baseline of 10 points or more",[1],24 (68.6) n (%)
same,"Non-responder, UAS7 reduction from baseline of 10 points or more",[2],19 (46.3) n (%)
same,"OR for rilzabrutinib vs. placebo, UAS7 reduction of 10 points or more",[2],1.238
same,"RRD (%) for rilzabrutinib vs. placebo, UAS7 reduction of 10 points or more",[2],5.2 %
same,"Responder, UAS7 reduction from baseline of 10 points or more",[2],22 (53.7) n (%)
same,UAS7 Change from baseline Mean (SD),[3],−12.56 (11.55)
same,UAS7 Change from baseline Median,[3],−12.67
same,UAS7 Mean (SD),[3],17.22 (13.36)
same,UAS7 Median,[3],16.50
same,UAS7 Percent change from baseline Mean (SD),[3],−44.07 (39.75) %
same,UAS7 Percent change from baseline Median,[3],−40.89%
same,UAS7 Change from baseline Mean (SD),[4],−25.00 (18.42)
same,UAS7 Change from baseline Median,[4],−29.00
same,UAS7 Mean (SD),[4],9.75 (16.94)
same,UAS7 Median,[4],2.00
same,UAS7 Percent change from baseline Mean (SD),[4],−71.30 (48.04) %
same,UAS7 Percent change from baseline Median,[4],−92.59%
same,"Non-responder, UAS7 reduction from baseline of 10 points or more",[5],16 (45.7) n (%)
same,"OR for rilzabrutinib vs. placebo, UAS7 reduction of 10 points or more",[5],1.329
same,"RRD (%) for rilzabrutinib vs. placebo, UAS7 reduction of 10 points or more",[5],7.0 %
same,"Responder, UAS7 reduction from baseline of 10 points or more",[5],19 (54.3) n (%)
same,"Non-responder, UAS7 reduction from baseline of 10 points or more",[6],21 (55.3) n (%)
same,"OR for rilzabrutinib vs. placebo, UAS7 reduction of 10 points or more",[6],0.950
same,"RRD (%) for rilzabrutinib vs. placebo, UAS7 reduction of 10 points or more",[6],−1.3 %
same,"Responder, UAS7 reduction from baseline of 10 points or more",[6],17 (44.7) n (%)
same,UAS7 Change from baseline Mean (SD),[7],−10.65 (9.52)
same,UAS7 Change from baseline Median,[7],−8.50
same,UAS7 Mean (SD),[7],20.63 (9.18)
same,UAS7 Median,[7],18.63
same,UAS7 Percent change from baseline Mean (SD),[7],−32.46 (26.63) %
same,UAS7 Percent change from baseline Median,[7],−27.86%
same,UAS7 Change from baseline Mean (SD),[8],−22.00 (NC)
same,UAS7 Change from baseline Median,[8],−22.00
same,UAS7 Mean (SD),[8],19.00 (NC)
same,UAS7 Median,[8],19.00
same,UAS7 Percent change from baseline Mean (SD),[8],−53.66 (NC) %
same,UAS7 Percent change from baseline Median,[8],−53.66%
same,"Non-responder, UAS7 reduction from baseline of 10 points or more",[9],21 (56.8) n (%)
same,"OR for rilzabrutinib vs. placebo, UAS7 reduction of 10 points or more",[9],0.877
same,"RRD (%) for rilzabrutinib vs. placebo, UAS7 reduction of 10 points or more",[9],−3.4 %
same,"Responder, UAS7 reduction from baseline of 10 points or more",[9],16 (43.2) n (%)
same,"Non-responder, UAS7 reduction from baseline of 10 points or more",[10],12 (29.3) n (%)
same,"OR for rilzabrutinib vs. placebo, UAS7 reduction of 10 points or more",[10],2.703
same,"RRD (%) for rilzabrutinib vs. placebo, UAS7 reduction of 10 points or more",[10],23.5 %
same,"Responder, UAS7 reduction from baseline of 10 points or more",[10],29 (70.7) n (%)
same,UAS7 Change from baseline Mean (SD),[11],−16.74 (11.67)
same,UAS7 Change from baseline Median,[11],−15.17
same,UAS7 Mean (SD),[11],13.41 (10.60)
same,UAS7 Median,[11],14.00
same,UAS7 Percent change from baseline Mean (SD),[11],−54.42 (33.80) %
same,UAS7 Percent change from baseline Median,[11],−50.00%
same,UAS7 Change from baseline Mean (SD),[12],−24.11 (14.81)
same,UAS7 Change from baseline Median,[12],−20.50
same,UAS7 Mean (SD),[12],8.92 (10.94)
same,UAS7 Median,[12],5.50
same,UAS7 Percent change from baseline Mean (SD),[12],−70.71 (27.72) %
same,UAS7 Percent change from baseline Median,[12],−73.90%
same,"Non-responder, UAS7 reduction from baseline of 10 points or more",[13],11 (31.4) n (%)
same,"OR for rilzabrutinib vs. placebo, UAS7 reduction of 10 points or more",[13],2.512
same,"RRD (%) for rilzabrutinib vs. placebo, UAS7 reduction of 10 points or more",[13],22.4 %
same,"Responder, UAS7 reduction from baseline of 10 points or more",[13],24 (68.6) n (%)
same,"Non-responder, UAS7 reduction from baseline of 10 points or more","Week 6, 400 mg BID, ITT population",20 (48.8) n (%)
